Measurements taken from patent US8324390B2, “Tetrazole-substituted anthranilamides as pesticides” (Bayer CropScience AG, priority 2008, dated 2012).
Read-outs that look alike come from different tables or passages of the source.

Columns and labels:
[1] = log P determination by HPLC (EEC Directive 79/831 Annex V.A8); format: physicochemical
Method: The measurements were carried out using an Agilent 1100 LC system with a 50*4.6 Zorbax Eclipse C18 1.8 μm column (oven temperature 55° C., flow rate 2.0 ml/min).
The following mobile phases were used:
Mobile phase A: acetonitrile+1000 μl of formic acid/l
Mobile phase B: Millipore water+900 μl of formic acid/l

[2] = test system: caterpillars of the armyworm (Spodoptera frugiperda); assay: Spodoptera frugiperda test (SPODFR spray treatment); format: in vivo; details: Spodoptera frugiperda, foliar, read-out: effect in % (caterpillars killed)
From the text: (§1) Solvent: 78.0 parts by weight of acetone

[3] = test system: green peach aphid (Myzus persicae); assay: Myzus test (MYZUPE spray treatment); format: in vivo; details: Myzus persicae, foliar, read-out: effect in % (aphids killed)
From the text: Solvent: 78 parts by weight of acetone
as §1

[4] = test system: larvae of the mustard beetle (Phaedon cochleariae); assay: Phaedon test (PHAECO spray treatment); details: Phaedon cochleariae, in Brassica rapa, foliar, read-out: effect in % (beetle larvae killed)
[5] = reversed-phase HPLC, Zorbax Eclipse C18 column, determined by HPLC according to EEC Directive 79/831 Annex V.A8, read-out: log P
[6] = application rate 100 g/ha, maize leaf discs
[7] = application rate 100 g/ha, Chinese cabbage leaf discs
[8] = reversed-phase HPLC, Zorbax Eclipse C18 column, by HPLC according to EEC Directive 79/831 Annex V.A8, read-out: log P

Row | chromatographic logP [1, 5] | chromatographic logP [1, 8] | SMILES | pest or weed control at 100 g/ha [2, 6] [%] | pest or weed control at 100 g/ha [3, 7] [%] | pest or weed control at 100 g/ha [4] [%] | chromatographic logP ([1]; log P) | pest or weed control at 100 g/ha ([2]; in Zea mays) [%] | pest or weed control at 100 g/ha ([3]; in Brassica rapa) [%]
1 | 3.25 |  | Cc1cc(C#N)cc(C(=O)NC(C)C)c1NC(=O)c1cc(Cn2nnnc2C(F)(F)F)nn1-c1ccccc1Cl [Example 491] | ≥ 80 | ≥ 80 | ≥ 80 |  |  | 
2 |  | 4 | Cc1cc(Cl)cc(C(=O)NC(C)(C)C)c1NC(=O)c1cc(Cn2nnc(C(F)(F)F)n2)nn1-c1ncccc1C(F)(F)F [Example 224] | ≥ 80 | ≥ 80 | ≥ 80 |  |  | 
3 |  | 3.58 | CNC(=O)c1cc(C#N)cc(C)c1NC(=O)c1cc(Cn2nnc(C(F)(F)F)n2)nn1-c1ncccc1Br [Example 314] | ≥ 80 | ≥ 80 | ≥ 80 |  |  | 
4 |  |  | CCNC(=O)c1cc(C#N)cc(C)c1NC(=O)c1cc(C(C)n2nnnc2C(F)(F)F)nn1-c1ncccc1Cl (centres unmarked) [Example 521] |  |  | ≥ 80 | 2.74 | ≥ 80 | ≥ 80
5 |  |  | CNC(=O)c1cc(Cl)cc(C)c1NC(=O)c1cc(Cn2nnc(C3CC3)n2)nn1-c1ncccc1Cl [Example 104] |  |  | ≥ 80 | 2.52 | ≥ 80 | ≥ 80
6 |  |  | Cc1cc(C#N)cc(C(=O)NC(C)(C)C)c1NC(=O)c1cc(Cn2nnnc2C(F)F)nn1-c1ncccc1Cl [Example 464] |  |  | ≥ 80 | 2.59 | ≥ 80 | ≥ 80
7 |  | 3.28 | CNC(=O)c1cc(C#N)cc(C)c1NC(=O)c1cc(Cn2nnc(C(F)(F)F)n2)nn1-c1c(Cl)cccc1Cl [Example 312] | ≥ 80 | ≥ 80 | ≥ 80 |  |  | 
8 |  | 3.15 | CNC(=O)c1cc(C#N)cc(C)c1NC(=O)c1cc(Cn2nnc(C(F)(F)F)n2)nn1-c1ccccc1Br [Example 349] | ≥ 80 | ≥ 80 | ≥ 80 |  |  | 
9 |  |  | Cc1cc(C#N)cc(C(=O)NCC#N)c1NC(=O)c1cc(Cn2nnc(C(F)F)n2)nn1-c1ncccc1Cl [Example 271] |  |  | ≥ 80 | 2.19 | ≥ 80 | ≥ 80
10 |  |  | CSC[C@H](C)NC(=O)c1cc(Cl)cc(Cl)c1NC(=O)c1cc(Cn2nnc(C(F)(F)C(F)(F)F)n2)nn1-c1ncccc1Cl [Example 154] |  |  | ≥ 80 | 4.02 | ≥ 80 | ≥ 80
11 |  |  | CNC(=O)c1cc(Cl)cc(Cl)c1NC(=O)c1cc(Cn2nnnc2C(F)(F)C(F)(F)F)nn1-c1ncccc1Cl [Example 447] |  |  | ≥ 80 | 3.03 | ≥ 80 | ≥ 80
12 |  |  | Cc1cc(Br)cc(C(=O)NC(C)C2CC2)c1NC(=O)c1cc(Cn2nnc(C(F)(F)F)n2)nn1-c1ncccc1Cl (centres unmarked) [Example 31] |  |  | ≥ 80 | 3.89 | ≥ 80 | ≥ 80
13 |  |  | Cc1cc(Cl)cc(C(=O)NC(C)CF)c1NC(=O)c1cc(Cn2nnc(C(F)(F)F)n2)nn1-c1ncccc1Cl (centres unmarked) [Example 328] |  |  | ≥ 80 | 3.3 | ≥ 80 | ≥ 80
14 |  |  | Cc1cc(C#N)cc(C(=O)NC(C)(C)C)c1NC(=O)c1cc(Cn2nnnc2C(F)(F)C(F)(F)F)nn1-c1ncccc1Cl [Example 446] |  |  | ≥ 80 | 3.47 | ≥ 80 | ≥ 80
15 | 3.02 |  | CCNC(=O)c1cc(Br)cc(C)c1NC(=O)c1cc(Cn2nnnc2C(F)(F)F)nn1-c1ncccc1Br [Example 505] | ≥ 80 | ≥ 80 | ≥ 80 |  |  | 
16 |  |  | Cc1cc(Cl)cc(C(=O)NC(C)C)c1NC(=O)c1cc(Cn2nnnc2C(F)F)nn1-c1ncccc1Cl [Example 462] |  |  | ≥ 80 | 2.75 | ≥ 80 | ≥ 80
17 |  |  | CSC[C@H](C)NC(=O)c1cc(Br)cc(C)c1NC(=O)c1cc(Cn2nnc(C(F)(F)F)n2)nn1-c1ncccc1Cl [Example 42] |  |  | ≥ 80 | 3.77 | ≥ 80 | ≥ 80
18 |  |  | Cc1cc(C#N)cc(C(=O)NC(C)C2CC2)c1NC(=O)c1cc(Cn2nnc(C(F)F)n2)nn1-c1ncccc1Cl (centres unmarked) [Example 263] |  |  | ≥ 80 | 2.86 | ≥ 80 | ≥ 80

Row | chromatographic logP [1, 5] | chromatographic logP [1, 8] | SMILES | pest or weed control at 100 g/ha [2, 6] [%] | pest or weed control at 100 g/ha [3, 7] [%] | pest or weed control at 100 g/ha [4] [%] | chromatographic logP ([1]; log P) | pest or weed control at 100 g/ha ([2]; in Zea mays) [%] | pest or weed control at 100 g/ha ([3]; in Brassica rapa) [%]
19 |  |  | CC(C)NC(=O)c1cc(Cl)cc(Cl)c1NC(=O)c1cc(Cn2nnnc2C(F)F)nn1-c1ncccc1Cl [Example 466] |  |  | ≥ 80 | 2.71 | ≥ 80 | ≥ 80
20 |  |  | Cc1cc(C#N)cc(C(=O)NC2CC2)c1NC(=O)c1cc(Cn2nnc(C(F)F)n2)nn1-c1ncccc1Cl [Example 264] |  |  | ≥ 80 | 2.39 | ≥ 80 | ≥ 80
21 | 3.46 |  | Cc1cc(C#N)cc(C(=O)NC(C)C)c1NC(=O)c1cc(Cn2nnc(C(F)(F)C(F)(F)F)n2)nn1-c1ncccc1Br [Example 423] | ≥ 80 | ≥ 80 | ≥ 80 |  |  | 
22 |  | 2.82 | Cc1cc(Br)cc(C(N)=O)c1NC(=O)c1cc(Cn2nnc(C(F)(F)F)n2)nn1-c1ncccc1Br [Example 353] | ≥ 80 | ≥ 80 | ≥ 80 |  |  | 
23 |  |  | CNC(=O)c1cc(Cl)cc(C)c1NC(=O)c1cc(Cn2nnnc2C(F)(F)F)nn1-c1ncccc1Cl [Example 161] |  |  | ≥ 80 | 2.63 | ≥ 80 | ≥ 80
24 |  |  | CNC(=O)c1cc(Cl)cc(C)c1NC(=O)c1cc(C(C)n2nnnc2C(F)(F)F)nn1-c1ncccc1Cl (centres unmarked) [Example 510] |  |  | ≥ 80 | 2.86 | ≥ 80 | ≥ 80
25 |  |  | CNC(=O)c1cc(Cl)cc(Cl)c1NC(=O)c1cc(Cn2nnnc2C(F)F)nn1-c1ncccc1Cl [Example 476] |  |  | ≥ 80 | 2.22 | ≥ 80 | ≥ 80
26 |  |  | Cc1cc(Cl)cc(C(=O)NC(C)(C)C)c1NC(=O)c1cc(Cn2nnc(C(F)(F)F)n2)nn1-c1ncccc1Cl [Example 544] |  |  | ≥ 80 | 3.85 | ≥ 80 | ≥ 80
27 |  |  | CC(NC(=O)c1cc(Cl)cc(Cl)c1NC(=O)c1cc(Cn2nnnc2C(F)F)nn1-c1ncccc1Cl)C1CC1 (centres unmarked) [Example 465] |  |  | ≥ 80 | 3.02 | ≥ 80 | ≥ 80
28 |  | 4.39 | CSC[C@H](C)NC(=O)c1cc(Cl)cc(C)c1NC(=O)c1cc(Cn2nnc(C(F)(C(F)(F)F)C(F)(F)F)n2)nn1-c1ncccc1Cl [Example 361] | ≥ 80 | ≥ 80 | ≥ 80 |  |  | 
29 |  |  | CNC(=O)c1cc(I)cc(C)c1NC(=O)c1cc(Cn2nnc(C(F)F)n2)nn1-c1ncccc1Cl [Example 273] |  |  | ≥ 80 | 2.73 | ≥ 80 | ≥ 80
30 |  |  | CCNC(=O)c1cc(C#N)cc(C)c1NC(=O)c1cc(Cn2nnc(C(F)F)n2)nn1-c1ncccc1Cl [Example 265] |  |  | ≥ 80 | 2.36 | ≥ 80 | ≥ 80
31 | 2.91 |  | CNC(=O)c1cc(I)cc(C)c1NC(=O)c1cc(Cn2nnnc2C(F)(F)F)nn1-c1ncccc1Br [Example 506] | ≥ 80 | ≥ 80 | ≥ 80 |  |  | 
32 |  |  | CNC(=O)c1cc(Br)cc(C)c1NC(=O)c1cc(Cn2nnc(C(F)F)n2)nn1-c1ncccc1Cl [Example 296] |  |  | ≥ 80 | 2.61 | ≥ 80 | ≥ 80
33 |  |  | Cc1cc(C#N)cc(C(=O)NC(C)C)c1NC(=O)c1cc(C(C)n2nnc(C(F)(F)F)n2)nn1-c1ncccc1Cl (centres unmarked) [Example 438] |  |  | ≥ 80 | 3.35 | ≥ 80 | ≥ 80
34 |  |  | CNC(=O)c1cc(Cl)cc(C)c1NC(=O)c1cc(Cn2nnc(C(F)F)n2)nn1-c1ncccc1Cl [Example 255] |  |  | ≥ 80 | 2.46 | ≥ 80 | ≥ 80
35 | 3.11 |  | Cc1cc(I)cc(C(=O)NC2CC2)c1NC(=O)c1cc(Cn2nnnc2C(F)(F)F)nn1-c1ncccc1Br [Example 495] | ≥ 80 | ≥ 80 | ≥ 80 |  |  | 
